The test system of one assay is SARS-CoV-2. Kind of assay: microbe, parasite or virus in culture. The format is cell-based. The note with it: Severe acute respiratory syndrome coronavirus 2; read-out: Antiviral EC50 Data.
For the next assay, the target named is SARS-CoV-2 3CLpro (Severe acute respiratory syndrome coronavirus 2 (2019-nCoV) (SARS-CoV-2), UniProt P0DTD1). Kind of assay: SARS-CoV-2 3CLpro enzyme inhibition assay. The format is biochemical.
The mark [1] stands for this setting: SARS-CoV-2 3CLpro, 10 minutes pre-incubation of enzyme with compound, read-out: Enzyme IC50 Data.

Molecules are shown by their SMILES. Like-named read-outs stand apart in the source and are kept apart here.

The EC50 is the concentration needed to bring the measured effect to its halfway point. In general, IC50 refers to the point on the concentration scale where inhibition reaches its midpoint. With `CCCO[C@@H]1C[C@@H](C(=O)N[C@@H](C[C@@H]2CCNC2=O)C(=O)c2nc3ccccc3s2)N(C(=O)[C@@H](NC(=O)NC(C)(C)C)C(C)(C)C)C1`, the EC50 in the assay with SARS-CoV-2 was 50 to 100 µM. Besides, at SARS-CoV-2 3CLpro, the IC50 was 0.1 to 5 µM.
Consider `CCCO[C@@H]1C[C@@H](C(=O)N[C@@H](CC2CCNC2=O)C(=O)c2nc3ccccc3s2)N(C(=O)C(NC(=O)NC(C)(C)C)C(C)C)C1` (some centres unmarked), for which the EC50 with SARS-CoV-2 is 50 to 100 µM. Moreover, the concentration for half-maximal inhibition (IC50) on SARS-CoV-2 3CLpro was 0.1 to 5 µM.
Consider `CCCN(CCC)[C@@H]1C[C@@H](C(=O)N[C@@H](C[C@H]2CCNC2=O)C(=O)c2nc3ccccc3s2)N(C(=O)[C@@H](NC(=O)OC(C)(C)C)C(C)(C)C)C1`, for which the EC50 in the assay with SARS-CoV-2 fell in the range of 5 to 50 µM. The same compound registered an IC50 at SARS-CoV-2 3CLpro of 0.1 to 5 µM.
`CCCC(=O)N[C@@H]1C[C@@H](C(=O)N[C@@H](C[C@H]2CCNC2=O)C(=O)c2nc3ccccc3s2)N(C(=O)[C@@H](NC(=O)OC(C)(C)C)C(C)(C)C)C1`: the EC50 with SARS-CoV-2 is over 100 µM. This compound registered an IC50 against SARS-CoV-2 3CLpro of 0.1 to 5 µM.
For `CC(C)(C)NC(=O)N[C@H](C(=O)N1C[C@H]2[C@@H]([C@H]1C(=O)N[C@@H](C[C@@H]1CCNC1=O)C(=O)c1nc3ccccc3s1)C2(C)C)C(C)(C)C` the same measures were 5 to 50 µM and 50 to 100 µM.
The matching figures for `CC(C)(C)NC(=O)N[C@H](C(=O)N1C[C@H]2[C@@H]([C@H]1C(=O)N[C@@H](C[C@@H]1CCNC1=O)C(=O)C(=O)NCc1ccccc1)C2(C)C)C(C)(C)C`: over 100 µM and 50 to 100 µM.
For `CC(C)(C)NC(=O)N[C@H](C(=O)N1C[C@H]2[C@@H]([C@H]1C(=O)N[C@@H](C[C@@H]1CCNC1=O)C(=O)c1nc(-c3ccccc3)cs1)C2(C)C)C(C)(C)C` the same measures were 5 to 50 µM and 5 to 50 µM.
On to `CC(C)(C)NC(=O)N[C@H](C(=O)N1C[C@H]2[C@@H]([C@H]1C(=O)N[C@@H](C[C@@H]1CCNC1=O)C(=O)C(N)=O)C2(C)C)C(C)(C)C`, for which the EC50 with SARS-CoV-2 was over 100 µM.
For the compound `CCCO[C@@H]1C[C@@H](C(=O)N[C@@H](C[C@@H]2CCNC2=O)C(=O)c2nc(-c3ccccc3)cs2)N(C(=O)[C@@H](NC(=O)NC(C)(C)C)C(C)(C)C)C1`, the EC50 with SARS-CoV-2 was in the range of 5 to 50 µM. Besides, the IC50 at SARS-CoV-2 3CLpro (setting [1]) is over 100 µM.
Take `CCCN(CCC)[C@@H]1C[C@@H](C(=O)N[C@@H](C[C@H]2CCNC2=O)C(=O)c2nc3ccccc3s2)N(C(=O)[C@@H](NC(=O)NC(C)(C)C)C(C)(C)C)C1`: the EC50 in the assay on SARS-CoV-2 was in the range of 5 to 50 µM. In addition, the IC50 on SARS-CoV-2 3CLpro (setting [1]) was over 100 µM.
For `CCCC(=O)N[C@@H]1C[C@@H](C(=O)N[C@@H](C[C@H]2CCNC2=O)C(=O)c2nc3ccccc3s2)N(C(=O)[C@@H](NC(=O)NC(C)(C)C)C(C)(C)C)C1`, in the assay on SARS-CoV-2, the EC50 was over 100 µM. Further, the IC50 on SARS-CoV-2 3CLpro lay within 0.1 to 5 µM.
`CC(C)(C)NC(=O)N[C@H](C(=O)N1C[C@H](N2CCCC2)C[C@H]1C(=O)N[C@@H](C[C@H]1CCNC1=O)C(=O)c1nc2ccccc2s1)C(C)(C)C`: the EC50 in the assay on SARS-CoV-2 is over 100 µM. Further, the IC50 at SARS-CoV-2 3CLpro lay in the range of 5 to 50 µM.
Turning to `CC(C)(C)NC(=O)N[C@H](C(=O)N1C[C@H](N2CCOCC2)C[C@H]1C(=O)N[C@@H](C[C@H]1CCNC1=O)C(=O)c1nc2ccccc2s1)C(C)(C)C`, the concentration for half-maximal inhibition (IC50) on SARS-CoV-2 3CLpro (setting [1]) lay in the range of 0.1 to 5 µM.
For the compound `CCCN(CCC)[C@@H]1C[C@@H](C(=O)N[C@@H](C[C@H]2CCNC2=O)C(=O)c2nc(-c3ccccc3)cs2)N(C(=O)[C@@H](NC(=O)NC(C)(C)C)C(C)(C)C)C1`, the half-maximal inhibitory concentration (IC50) at SARS-CoV-2 3CLpro (setting [1]) was 0.1 to 5 µM.
The same measure, in the same setting: in the case of `CC(C)(C)[C@H](NC(=O)NCc1ccncc1)C(=O)N1C[C@H]2[C@@H]([C@H]1C(=O)N[C@@H](C[C@@H]1CCNC1=O)C(=O)c1nc(-c3ccccc3)cs1)C2(C)C` it was 0.1 to 5 µM.
The same measure, in the same setting: in the case of `CN(C)[C@@H]1C[C@@H](C(=O)N[C@@H](C[C@@H]2CCNC2=O)C(=O)c2nc(-c3ccccc3)cs2)N(C(=O)[C@@H](NC(=O)NC(C)(C)C)C(C)(C)C)C1` it was 0.1 to 5 µM; in that of `CCN(CC)[C@@H]1C[C@@H](C(=O)N[C@@H](C[C@@H]2CCNC2=O)C(=O)c2nc(-c3ccccc3)cs2)N(C(=O)[C@@H](NC(=O)NC(C)(C)C)C(C)(C)C)C1`, 0.1 to 5 µM; in that of `CC(C)(C)NC(=O)N[C@H](C(=O)N1C[C@H]2[C@@H]([C@H]1C(=O)N[C@@H](C[C@@H]1CCNC1=O)C(=O)c1nc(-c3ccccc3)co1)C2(C)C)C(C)(C)C`, 50 to 100 µM.
Regarding `CC(=O)OC(C#N)[C@H](CC1CCCNC1=O)NC(=O)[C@@H]1[C@@H]2[C@H](CN1C(=O)C(NC(=O)NC(C)(C)C)C(C)(C)C)C2(C)C` (some centres unmarked), in the assay with SARS-CoV-2, the EC50 was over 100 µM.
Turning to `CCCN(CCC)[C@@H]1C[C@@H](C(=O)NC(C#N)C[C@@H]2CCNC2=O)N(C(=O)[C@@H](NC(=O)C(F)(F)F)C(C)(C)C)C1` (some centres unmarked), the EC50 in the assay with SARS-CoV-2 is over 100 µM. Also, the IC50 against SARS-CoV-2 3CLpro was over 100 µM.
For the compound `CCCN(CCC)[C@@H]1C[C@@H](C(=O)NC(C#N)C[C@@H]2CCNC2=O)N(C(=O)[C@@H](NC(=O)OC(C)(C)C)C(C)(C)C)C1` (some centres unmarked), the EC50 in the assay on SARS-CoV-2 was 5 to 50 µM. Moreover, the concentration for half-maximal inhibition (IC50) at SARS-CoV-2 3CLpro (setting [1]) was over 100 µM.
Take `CCCO[C@@H]1C[C@@H](C(=O)NC(C#N)C[C@@H]2CCNC2=O)N(C(=O)[C@@H](NC(=O)NC(C)(C)C)C(C)(C)C)C1` (some centres unmarked): in the assay with SARS-CoV-2, the EC50 was over 100 µM. Also, the IC50 against SARS-CoV-2 3CLpro was 50 to 100 µM.
Regarding `CC(C)(C)NC(=O)N[C@H](C(=O)N1C[C@H]2[C@@H]([C@H]1C(=O)NC(C#N)C[C@@H]1CCNC1=O)C2(C)C)C(C)(C)C` (some centres unmarked), the EC50 with SARS-CoV-2 was over 100 µM.
Still for that read-out and setting: in the case of `CC(C)(C)[C@H](NC(=O)c1ccccc1)C(=O)N1C[C@H]2[C@@H]([C@H]1C(=O)N[C@H](C#N)C[C@@H]1CCNC1=O)C2(C)C` it was 50 to 100 µM.
For `CCCO[C@@H]1C[C@@H](C(=O)N[C@@H](C[C@@H]2CCNC2=O)C(=O)c2nc3ccccc3s2)N(C(=O)[C@@H](NC(=O)OC(C)(C)C)C(C)(C)C)C1` [drawing 99], the EC50 with SARS-CoV-2 fell in the range of 0.1 to 5 µM. Also, the IC50 against SARS-CoV-2 3CLpro lay within 0.1 to 5 µM.
For the compound `CCCO[C@@H]1C[C@@H](C(=O)N[C@@H](C[C@@H]2CCNC2=O)C(=O)c2nc3ccccc3s2)N(C(=O)[C@@H](NC(=O)OC(C)(C)C)C(C)(C)C)C1` [drawing 100], the IC50 at SARS-CoV-2 3CLpro (read-out: Enzyme IC50 Data, SARS-CoV-2 3CLpro, 10 minutes pre-incubation of enzyme with compound) fell in the range of 0.1 to 5 µM.

For the origin of these results see patent publication US20240043417A1, “COMPOUNDS FOR THE TREATMENT OF SARS” (Purdue Research Foundation, priority 2020, published 2024).
